# Numbered stars: 1 amine (or outer) side, 2 acyl side, 3 side chain; on linkers, the order of the positions; unused ones are H or OH. Bridge positions count the residues as written; N and C are the ends. Square brackets hold non-standard residues; d marks the D form. Peptide text beside a SMILES is read from it. * marks the point of attachment. C20 diacid = O=C(O)CCCCCCCCCCCCCCCCCCC(=O)*; Pro(4R-NH2) = N[C@H]1CN[C@H](C(=O)O)C1; γGlu = O=C(O)[C@H](CCC(=O)[*:2])N[*:1]; NMeI = CC[C@H](C)[C@H](NC)C(=O)O; Sar = CNCC(=O)O
# Legend:
# [1] = biological target: T1, human calcitonin receptor (hCTR2) (Homo sapiens, UniProt P30988); assay: hCTR2 assay: induction of cAMP (AlphaScreen cAMP Assay kit) in COS7 cells expressing hCTR2; format: cell-based; details: cAMP induction in COS7 cells expressing hCTR2; average of a minimum of 3 determinations; read-out: hCTR2 EC50
# T1 construct: expressed in transfected cells
# T1 sequence (P30988 25-474): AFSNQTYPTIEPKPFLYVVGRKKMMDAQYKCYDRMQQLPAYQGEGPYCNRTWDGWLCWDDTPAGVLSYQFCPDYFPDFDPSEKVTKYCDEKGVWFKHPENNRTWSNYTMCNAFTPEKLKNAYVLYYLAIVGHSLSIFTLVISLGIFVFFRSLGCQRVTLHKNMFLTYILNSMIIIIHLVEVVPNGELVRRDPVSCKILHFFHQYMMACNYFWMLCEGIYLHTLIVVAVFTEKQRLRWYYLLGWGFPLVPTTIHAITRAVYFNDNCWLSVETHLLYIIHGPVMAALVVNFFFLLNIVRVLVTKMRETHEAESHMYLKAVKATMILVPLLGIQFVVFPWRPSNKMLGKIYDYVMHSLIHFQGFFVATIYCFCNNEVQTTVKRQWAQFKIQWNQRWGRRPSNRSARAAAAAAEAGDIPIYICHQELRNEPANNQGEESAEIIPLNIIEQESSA
# How it was run: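 Stable RAMP-naive COS7 clone expressing hCTR2 was stimulated with increasing peptide concentrations in Tyrode buffer (pH 7.4) with 100 µM IBMX and 0.1% casein for 15 min at 37° C. Cells were lysed and cAMP measured by AlphaScreen. EC50 and efficacy relative to pramlintide came from 4PL curve fits.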
# [2] = biological target: T2, human amylin receptor 3 (hAMYR3) consisting of hCTR2 co-expressed with human Receptor Activity Modifying Protein 3 (hRAMP3) (Homo sapiens, UniProt O60896+P30988); assay: hAMYR3 assay: induction of cAMP (AlphaScreen cAMP Assay kit) in COS7 cells expressing hAMYR3; format: cell-based; details: cAMP induction in COS7 cells expressing hAMYR3; average of a minimum of 3 determinations; read-out: hAMY R3 EC50
# T2 construct: expressed in transfected cells
# T2 sequence (P30988 25-474): T1 sequence (P30988 25-474)
# T2 sequence (O60896 24-148 partner): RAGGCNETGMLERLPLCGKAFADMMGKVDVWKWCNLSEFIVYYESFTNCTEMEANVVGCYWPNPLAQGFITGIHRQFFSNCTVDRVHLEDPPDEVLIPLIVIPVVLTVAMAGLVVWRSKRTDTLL
# How it was run: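 Stable COS7 clone co-expressing hCTR2 and hRAMP3, stimulated 15 min at 37° C with increasing peptide in Tyrode buffer pH 7.4 with 100 µM IBMX and 0.1% casein. cAMP measured by AlphaScreen after lysis; EC50 and % efficacy versus pramlintide from 4PL fit.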
# [3] = Solubility assessment (turbidity absorbance at 325 nm); format: physicochemical; details: stock 2 mg/ml diluted 1:1, ambient temperature (typically 25°C), n=1; for Solubility, Acetate buffer pH 4: 100 mM acetate buffer pH 4.0; for Solubility, Acetate buffer pH 5: 100 mM acetate buffer pH 5.0; for Solubility, Histidine buffer pH 6: 100 mM histidine buffer pH 6.0; for Solubility, Histidine buffer pH 7: 100 mM histidine buffer pH 7.0; for Solubility, Phosphate buffer pH 6: 100 mM phosphate buffer pH 6.0; for Solubility, Phosphate buffer pH 7: 100 mM phosphate buffer pH 7.0; for Solubility, Phosphate buffer pH 7.5: 100 mM phosphate buffer pH7.5
# How it was run: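 Peptide stock (2 mg/ml, water pH 2.5) diluted 1:1 into 100 mM acetate (pH 4.0, 5.0), histidine (pH 6.0, 7.0) or phosphate (pH 6.0–7.5) buffer; absorbance at 325 nm read at about 25°C, n=1. A325 ≤ 0.02 taken as solubility ≥ 1 mg/ml.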
SMILES,EC50 [1],EC50 [2],"Solubility, Acetate buffer pH 4 [3]","Solubility, Acetate buffer pH 5 [3]","Solubility, Histidine buffer pH 6 [3]","Solubility, Histidine buffer pH 7 [3]","Solubility, Phosphate buffer pH 6 [3]","Solubility, Phosphate buffer pH 7 [3]","Solubility, Phosphate buffer pH 7.5 [3]"
"CC[C@H](C)[C@@H](C(=O)N[C@@H](CC(C)C)C(=O)N[C@@H](CO)C(=O)N[C@@H](CO)C(=O)N[C@H](C(=O)N[C@@H](CCC(=O)O)C(=O)N[C@H](C(=O)NCC(=O)N[C@@H](CO)C(=O)N[C@@H](CCC(=O)O)C(=O)N[C@H](C(=O)N1CCC[C@H]1C(N)=O)[C@@H](C)O)C(C)C)[C@@H](C)O)N(C)C(=O)[C@H](C)NC(=O)CN(C)C(=O)[C@H](Cc1ccccc1)NC(=O)[C@H](CO)NC(=O)[C@H](CO)NC(=O)[C@H](CO)NC(=O)[C@H](CO)NC(=O)[C@H](CCCNC(=N)N)NC(=O)[C@H](Cc1c[nH]cn1)NC(=O)[C@H](CC(C)C)NC(=O)[C@H](Cc1ccccc1)NC(=O)[C@H](CCC(=O)O)NC(=O)[C@H](C)NC(=O)[C@H](CC(C)C)NC(=O)[C@H](CCCNC(=N)N)NC(=O)CNC(=O)[C@@H](NC(=O)[C@H](C)NC(=O)[C@@H]1CSSC[C@H](NC(=O)[C@H](CCCNC(=N)N)NC(=O)CC[C@H](NC(=O)CCCCCCCCCCCCCCCCCCC(=O)O)C(=O)O)C(=O)N[C@@H](CC(N)=O)C(=O)N[C@@H]([C@@H](C)O)C(=O)N[C@@H](C)C(=O)N[C@@H]([C@@H](C)O)C(=O)N1)[C@@H](C)O [Compound 122, [19CD]-isoGlu-RC()NTATC()ATGRLAEFLHRSSSSF-Gly(Me)-A-Ile(Me)-LSSTEVGSETP-NH2] ({C20 diacid-γGlu}-RCNTATCATGRLAEFLHRSSSSF[Sar]A[NMeI]LSSTEVGSETP-NH2; disulfide 2-7)",0.11 nM,0.2 nM,SS (SS indicates solubility ≥ 1mg/ml),SS (SS indicates solubility ≥ 1mg/ml),SS (SS indicates solubility ≥ 1mg/ml),SS (SS indicates solubility ≥ 1mg/ml),SS (SS indicates solubility ≥ 1mg/ml),SS (SS indicates solubility ≥ 1mg/ml),SS (SS indicates solubility ≥ 1mg/ml)
"CC[C@H](C)[C@@H](C(=O)N[C@@H](CC(C)C)C(=O)N[C@@H](CO)C(=O)N[C@@H](CO)C(=O)N[C@H](C(=O)N[C@@H](CC(N)=O)C(=O)N[C@H](C(=O)NCC(=O)N[C@@H](CO)C(=O)N[C@@H](CC(N)=O)C(=O)N[C@H](C(=O)N1C[C@H](N)C[C@H]1C(N)=O)[C@@H](C)O)C(C)C)[C@@H](C)O)N(C)C(=O)CN(C)C(=O)[C@H](Cc1ccccc1)NC(=O)[C@H](CC(N)=O)NC(=O)[C@H](CC(N)=O)NC(=O)[C@H](CO)NC(=O)[C@H](CO)NC(=O)[C@H](CCCNC(=N)N)NC(=O)[C@H](Cc1c[nH]cn1)NC(=O)[C@H](CC(C)C)NC(=O)[C@H](Cc1ccccc1)NC(=O)[C@H](CCC(=O)O)NC(=O)[C@H](C)NC(=O)[C@H](CC(C)C)NC(=O)[C@H](CCCNC(=N)N)NC(=O)[C@H](CCC(N)=O)NC(=O)[C@@H](NC(=O)[C@H](C)NC(=O)[C@@H]1CSSC[C@H](NC(=O)[C@H](CCCNC(=N)N)NC(=O)CC[C@H](NC(=O)CCCCCCCCCCCCCCCCCCC(=O)O)C(=O)O)C(=O)N[C@@H](CC(N)=O)C(=O)N[C@@H]([C@@H](C)O)C(=O)N[C@@H](C)C(=O)N[C@@H]([C@@H](C)O)C(=O)N1)[C@@H](C)O [Compound 111, [19CD]-isoGlu-RC()NTATC()ATQRLAEFLHRSSNNF-Gly(Me)-Ile(Me)-LSSTNVGSNT-Apr-NH2] ({C20 diacid-γGlu}-RCNTATCATQRLAEFLHRSSNNF[Sar][NMeI]LSSTNVGSNT[Pro(4R-NH2)]-NH2; disulfide 2-7)",0.14 nM,0.21 nM,SS (SS indicates solubility ≥ 1mg/ml),SS (SS indicates solubility ≥ 1mg/ml),SS (SS indicates solubility ≥ 1mg/ml),SS (SS indicates solubility ≥ 1mg/ml),SS (SS indicates solubility ≥ 1mg/ml),SS (SS indicates solubility ≥ 1mg/ml),SS (SS indicates solubility ≥ 1mg/ml)
"CC[C@H](C)[C@@H](C(=O)N[C@@H](CC(C)C)C(=O)N[C@@H](CO)C(=O)N[C@@H](CO)C(=O)N[C@H](C(=O)N[C@@H](CC(=O)O)C(=O)N[C@H](C(=O)NCC(=O)N[C@@H](CO)C(=O)N[C@@H](CC(=O)O)C(=O)N[C@H](C(=O)N1CCC[C@H]1C(N)=O)[C@@H](C)O)C(C)C)[C@@H](C)O)N(C)C(=O)[C@H](C)NC(=O)CN(C)C(=O)[C@H](Cc1ccccc1)NC(=O)[C@H](CO)NC(=O)[C@H](CO)NC(=O)[C@H](CCCNC(=N)N)NC(=O)[C@H](Cc1c[nH]cn1)NC(=O)[C@H](CC(C)C)NC(=O)[C@H](Cc1ccccc1)NC(=O)[C@H](CCC(=O)O)NC(=O)[C@H](C)NC(=O)[C@H](CC(C)C)NC(=O)[C@H](CCCNC(=N)N)NC(=O)[C@H](CC(=O)O)NC(=O)[C@@H](NC(=O)[C@H](C)NC(=O)[C@@H]1CSSC[C@H](NC(=O)[C@H](Cc2c[nH]c3ccccc23)NC(=O)CC[C@H](NC(=O)CCCCCCCCCCCCCCCCCCC(=O)O)C(=O)O)C(=O)NCC(=O)N[C@@H]([C@@H](C)O)C(=O)N[C@@H](C)C(=O)N[C@@H]([C@@H](C)O)C(=O)N1)[C@@H](C)O [Compound 157, [19CD]-isoGlu-WC()GTATC()ATDRLAEFLHRSSF-Gly(Me)-A-Ile(Me)-LSSTDVGSDTP-NH2] ({C20 diacid-γGlu}-WCGTATCATDRLAEFLHRSSF[Sar]A[NMeI]LSSTDVGSDTP-NH2; disulfide 2-7)",0.072 nM,0.16 nM,II (II indicates solubility ≤ 1 mg/ml),SS (SS indicates solubility ≥ 1mg/ml),SS (SS indicates solubility ≥ 1mg/ml),SS (SS indicates solubility ≥ 1mg/ml),SS (SS indicates solubility ≥ 1mg/ml),SS (SS indicates solubility ≥ 1mg/ml),SS (SS indicates solubility ≥ 1mg/ml)
"CC[C@H](C)[C@@H](C(=O)N[C@@H](CC(C)C)C(=O)N[C@@H](CO)C(=O)N[C@@H](CO)C(=O)N[C@H](C(=O)N[C@@H](CC(N)=O)C(=O)N[C@H](C(=O)NCC(=O)N[C@@H](CO)C(=O)N[C@@H](CC(N)=O)C(=O)N[C@H](C(=O)N1CCC[C@H]1C(=O)NC)[C@@H](C)O)C(C)C)[C@@H](C)O)N(C)C(=O)CN(C)C(=O)[C@H](Cc1ccccc1)NC(=O)[C@H](CC(N)=O)NC(=O)[C@H](CC(N)=O)NC(=O)[C@H](CO)NC(=O)[C@H](CO)NC(=O)[C@H](CCCNC(=N)N)NC(=O)[C@H](Cc1c[nH]cn1)NC(=O)[C@H](CC(C)C)NC(=O)[C@H](Cc1ccccc1)NC(=O)[C@H](CCC(=O)O)NC(=O)[C@H](C)NC(=O)[C@H](CC(C)C)NC(=O)[C@H](CCCNC(=N)N)NC(=O)[C@H](CCC(N)=O)NC(=O)[C@@H](NC(=O)[C@H](C)NC(=O)[C@@H]1CSSC[C@H](NC(=O)[C@H](CCCNC(=N)N)NC(=O)CC[C@H](NC(=O)CCCCCCCCCCCCCCCCCCC(=O)O)C(=O)O)C(=O)N[C@@H](CC(N)=O)C(=O)N[C@@H]([C@@H](C)O)C(=O)N[C@@H](C)C(=O)N[C@@H]([C@@H](C)O)C(=O)N1)[C@@H](C)O [Compound 153, [19CD]-isoGlu-RC()NTATC()ATQRLAEFLHRSSNNF-Gly(Me)-Ile(Me)-LSSTNVGSNTP-NHMe] ({C20 diacid-γGlu}-RCNTATCATQRLAEFLHRSSNNF[Sar][NMeI]LSSTNVGSNTP-NHMe; disulfide 2-7)",0.73 nM,6.1 nM,SS (SS indicates solubility ≥ 1mg/ml),SS (SS indicates solubility ≥ 1mg/ml),II (II indicates solubility ≤ 1 mg/ml),SS (SS indicates solubility ≥ 1mg/ml),SS (SS indicates solubility ≥ 1mg/ml),SS (SS indicates solubility ≥ 1mg/ml),SS (SS indicates solubility ≥ 1mg/ml)
